These compounds were tested on mutant Huntington (HTT) protein (assay: HTT Mutant HTRF iPSC assay (mHTT protein lowering)). Settings: human iPSC derived from a HTT patient with a poly-Q49 mutation.
Type: cell-based

First: Cc1cn2cc(NC(=O)c3cc4ccc(N5C[C@H]6CN(C)C[C@H]6C5)nc4s3)ccc2n1 [Compound 21, 6-((3aR,6aS)-5-methylhexahydropyrrolo[3,4-c]pyrrol-2(1H)-yl)-N-(2-methylimidazo[1,2-a]pyridin-6-yl)thieno[2,3-b]pyridine-2-carboxamide]
Second: CC(=O)N1C[C@@H]2CN(c3ccc4cc(C(=O)Nc5ccc6nc(C)cn6c5)sc4n3)C[C@@H]2C1 [Compound 29, 6-((3aR,6aS)-5-acetylhexahydropyrrolo[3,4-c]pyrrol-2(1H)-yl)-N-(2-methylimidazo[1,2-a]pyridin-6-yl)thieno[2,3-b]pyridine-2-carboxamide]
The IC50 of the first is lower: 0.1 to 1 µM for the first, 1 to 9 µM for the second.

`Cc1cn2cc(NC(=O)c3cc4ccc(N5CC(N(C)C)C5)nc4s3)ccc2n1` [Compound 22, 6-(3-(dimethylamino)azetidin-1-yl)-N-(2-methylimidazo[1,2-a]pyridin-6-yl)thieno[2,3-b]pyridine-2-carboxamide] and `Cc1cn2cc(NC(=O)c3cc4ccc(N5C[C@@H]6[C@H](C5)[C@H]6N(C)C)nc4s3)ccc2n1` [Compound 24, 6-((1R,5S,6s)-6-(dimethylamino)-3-azabicyclo[3.1.0]hexan-3-yl)-N-(2-methylimidazo[1,2-a]pyridin-6-yl)thieno[2,3-b]pyridine-2-carboxamide] fall in the same range of IC50: 1 to 9 µM for the first, 1 to 9 µM for the second.

Compared with `Cc1cn2cc(NC(=O)c3cc4ccc(N(C)CCN(C)C)nc4s3)ccc2n1` [Compound 23, 6-((2-(dimethylamino)ethyl)(methyl)amino)-N-(2-methylimidazo[1,2-a]pyridin-6-yl)thieno[2,3-b]pyridine-2-carboxamide], `Cc1cn2cc(NC(=O)c3cc4ccc(NCC(C)(C)CN(C)C)nc4s3)ccc2n1` [Compound 41, 6-((3-(dimethylamino)-2,2-dimethylpropyl)amino)-N-(2-methylimidazo[1,2-a]pyridin-6-yl)thieno[2,3-b]pyridine-2-carboxamide] is higher in IC50: 0.1 to 1 µM for the first, 1 to 9 µM for the second. The first is the more potent here.

`Cc1cn2cc(NC(=O)c3cc4ccc(N5CC6CCC5CN6C)nc4s3)ccc2n1` (stereo not drawn) [Compound 27, 6-(5-methyl-2,5-diazabicyclo[2.2.2]octan-2-yl)-N-(2-methylimidazo[1,2-a]pyridin-6-yl)thieno[2,3-b]pyridine-2-carboxamide] and `Cc1cn2cc(NC(=O)c3cc4ccc(N5CC6CCCN6CC5C)nc4s3)ccc2n1` (stereo not drawn) [Compound 45, 6-(3-methylhexahydropyrrolo[1,2-a]pyrazin-2(1H)-yl)-N-(2-methylimidazo[1,2-a]pyridin-6-yl)thieno[2,3-b]pyridine-2-carboxamide] fall in the same range of IC50: 0.1 to 1 µM for the first, 0.1 to 1 µM for the second.

`Cc1cn2cc(NC(=O)c3cc4ccc(N5CCN(C)c6ncccc6C5)nc4s3)ccc2n1` [Compound 31, 6-(1-methyl-1,2,3,5-tetrahydro-4H-pyrido[2,3-e][1,4]diazepin-4-yl)-N-(2-methylimidazo[1,2-a]pyridin-6-yl)thieno[2,3-b]pyridine-2-carboxamide] and `Cc1cn2cc(NC(=O)c3cc4ccc(N5CCCN(C)CC5)nc4s3)ccc2n1` [Compound 40, 6-(4-methyl-1,4-diazepan-1-yl)-N-(2-methylimidazo[1,2-a]pyridin-6-yl)thieno[2,3-b]pyridine-2-carboxamide] fall in the same range of IC50: 0.1 to 1 µM for the first, 0.1 to 1 µM for the second.

First: Cc1cn2cc(NC(=O)c3cc4ccc(N5CC6CCC(N(C)C)CC6C5)nc4s3)ccc2n1 (stereo not drawn) [Compound 32, 6-(5-(dimethylamino)octahydro-2H-isoindol-2-yl)-N-(2-methylimidazo[1,2-a]pyridin-6-yl)thieno[2,3-b]pyridine-2-carboxamide]
Second: Cc1cn2cc(NC(=O)c3cc4ccc(N5CCC6C(CCCN6C)C5)nc4s3)ccc2n1 (stereo not drawn) [Compound 36, N-(2-methylimidazo[1,2-a]pyridin-6-yl)-6-(1-methyloctahydro-1,6-naphthyridin-6(2H)-yl)thieno[2,3-b]pyridine-2-carboxamide]
The IC50 of the first is higher: 1 to 9 µM for the first, 0.1 to 1 µM for the second. The second is the more potent here.

`Cc1cn2cc(NC(=O)c3cc4ccc(N5C[C@@H](C)N(CC(F)(F)F)[C@@H](C)C5)nc4s3)ccc2n1` [Compound 33] and `Cc1cn2cc(NC(=O)c3cc4ccc(N5CCC(N6CC(C)(C)C6)C5)nc4s3)ccc2n1` (stereo not drawn) [Compound 35, 6-(3-(3,3-dimethylazetidin-1-yl)pyrrolidin-1-yl)-N-(2-methylimidazo[1,2-a]pyridin-6-yl)thieno[2,3-b]pyridine-2-carboxamide] fall in the same range of IC50: 0.1 to 1 µM for the first, 0.1 to 1 µM for the second.

First: Cc1cn2cc(NC(=O)c3cc4ccc(N(C)C5CN6CCC5CC6)nc4s3)ccc2n1 (stereo not drawn) [Compound 38, 6-(methyl(quinuclidin-3-yl)amino)-N-(2-methylimidazo[1,2-a]pyridin-6-yl)thieno[2,3-b]pyridine-2-carboxamide]
Second: Cc1cn2cc(NC(=O)c3cc4ccc(N5CCC5CN(C)C)nc4s3)ccc2n1 (stereo not drawn) [Compound 48, 6-(2-((dimethylamino)methyl)azetidin-1-yl)-N-(2-methylimidazo[1,2-a]pyridin-6-yl)thieno[2,3-b]pyridine-2-carboxamide]
The IC50 of the first is lower: 0.1 to 1 µM for the first, 1 to 9 µM for the second. The first is the more potent here.

`Cc1cn2cc(NC(=O)c3cc4ccc(Nc5ccc(CN6CCCC6)cc5)nc4s3)ccc2n1` [Compound 39, N-(2-methylimidazo[1,2-a]pyridin-6-yl)-6-((4-(pyrrolidin-1-ylmethyl)phenyl)amino)thieno [2,3-b]pyridine-2-carboxamide] and `Cc1cn2cc(NC(=O)c3cc4ccc(Nc5ccc(N6CC(C)(C)C6)cc5)nc4s3)ccc2n1` [Compound 44, 6-((4-(3,3-dimethylazetidin-1-yl)phenyl)amino)-N-(2-methylimidazo[1,2-a]pyridin-6-yl)thieno[2,3-b]pyridine-2-carboxamide] fall in the same range of IC50: 1 to 9 µM for the first, 1 to 9 µM for the second.

`Cc1cn2cc(NC(=O)c3cc4ccc(Nc5cccc(N6CC(C)(C)C6)c5)nc4s3)ccc2n1` [Compound 42, 6-((3-(3,3-dimethylazetidin-1-yl)phenyl)amino)-N-(2-methylimidazo[1,2-a]pyridin-6-yl)thieno[2,3-b]pyridine-2-carboxamide] and `Cc1cn2cc(NC(=O)c3cc4ccc(Nc5ccc6c(c5)N(C)CCN(C)C6)nc4s3)ccc2n1` [Compound 47, 6-((1,4-dimethyl-2,3,4,5-tetrahydro-1H-benzo[e][1,4]diazepin-8-yl)amino)-N-(2-methylimidazo[1,2-a]pyridin-6-yl)thieno[2,3-b]pyridine-2-carboxamide] fall in the same range of IC50: 1 to 9 µM for the first, 1 to 9 µM for the second.

Compared with `CCN1Cc2cccc(Nc3ccc4cc(C(=O)Nc5ccc6nc(C)cn6c5)sc4n3)c2C1` [Compound 46, 6-((2-ethylisoindolin-4-yl)amino)-N-(2-methylimidazo[1,2-a]pyridin-6-yl)thieno[2,3-b]pyridine-2-carboxamide], `Cc1cn2cc(NC(=O)c3cc4ccc(N5CC[C@H](N(C)C)C5)nc4s3)cc(F)c2n1` [Compound 54, 6-[(3S)-3-(dimethylamino)pyrrolidin-1-yl]-N-(8-fluoro-2-methyl-imidazo[1,2-a]pyridin-6-yl)thieno[2,3-b]pyridine-2-carboxamide] is lower in IC50: 1 to 9 µM for the first, less than 0.1 µM for the second. The second is the more potent here.

`CN(C)C1CCN(c2ccc3cc(C(=O)Nc4ccc5[nH]c(=O)n(C)c5c4)sc3n2)C1` (stereo not drawn) [Compound 49, 6-(3-(dimethylamino)pyrrolidin-1-yl)-N-(3-methyl-2-oxo-2,3-dihydro-1H-benzo[d]imidazol-5-yl)thieno[2,3-b]pyridine-2-carboxamide] and `CN(C)C1CCN(c2ccc3cc(C(=O)Nc4ccc5sc(=O)n(C)c5c4)sc3n2)C1` (stereo not drawn) [Compound 59, 6-(3-(dimethylamino)pyrrolidin-1-yl)-N-(3-methyl-2-oxo-2,3-dihydrobenzo[d]thiazol-5-yl)thieno[2,3-b]pyridine-2-carboxamide] fall in the same range of IC50: 1 to 9 µM for the first, 1 to 9 µM for the second.

First: Cc1cn2cc(NC(=O)c3cc4ccc(N5CC[C@H](N(C)C)C5)nc4s3)nc(C)c2n1 [Compound 50, (S)-6-(3-(dimethylamino)pyrrolidin-1-yl)-N-(2,8-dimethylimidazo[1,2-a]pyrazin-6-yl)thieno[2,3-b]pyridine-2-carboxamide]
Second: Cc1cn2cc(NC(=O)c3cc4ccc(N5CC[C@@H](N(C)C)C5)nc4s3)nc(C)c2n1 [Compound 51, (R)-6-(3-(dimethylamino)pyrrolidin-1-yl)-N-(2,8-dimethylimidazo[1,2-a]pyrazin-6-yl)thieno[2,3-b]pyridine-2-carboxamide]
The IC50 of the first is higher: 0.1 to 1 µM for the first, less than 0.1 µM for the second. The second is the more potent here.

Compared with `Cc1cn2nc(NC(=O)c3cc4ccc(N5CC[C@H](N(C)C)C5)nc4s3)ccc2n1` [Compound 52, (S)-6-(3-(dimethylamino)pyrrolidin-1-yl)-N-(2-methylimidazo[1,2-b]pyridazin-6-yl)thieno[2,3-b]pyridine-2-carboxamide], `Cc1cn2nc(NC(=O)c3cc4ccc(N5CC[C@@H](N(C)C)C5)nc4s3)ccc2n1` [Compound 53, (R)-6-(3-(dimethylamino)pyrrolidin-1-yl)-N-(2-methylimidazo[1,2-b]pyridazin-6-yl)thieno[2,3-b]pyridine-2-carboxamide] is higher in IC50: 0.1 to 1 µM for the first, 1 to 9 µM for the second.

First: Cc1cn2cc(NC(=O)c3cc4ccc(N5CC[C@@H](N(C)C)C5)nc4s3)cc(F)c2n1 [Compound 55, 6-[(3R)-3-(dimethylamino)pyrrolidin-1-yl]-N-(8-fluoro-2-methyl-imidazo[1,2-a]pyridin-6-yl)thieno[2,3-b]pyridine-2-carboxamide]
Second: Cc1cn2nc(NC(=O)c3cc4ccc(N5CC[C@@H](N(C)C)C5)nc4s3)cc(C)c2n1 [Compound 56, (R)-6-(3-(dimethylamino)pyrrolidin-1-yl)-N-(2,8-dimethylimidazo[1,2-b]pyridazin-6-yl)thieno[2,3-b]pyridine-2-carboxamide]
The IC50 of the first is lower: less than 0.1 µM for the first, 1 to 9 µM for the second. The first is the more potent here.

`Cc1cn2cc(NC(=O)c3cc4ccc(N5CCCC5)nc4s3)nc(C)c2n1` [Compound 57, N-(2,8-dimethylimidazo[1,2-a]pyrazin-6-yl)-6-(pyrrolidin-1-yl)thieno[2,3-b]pyridine-2-carboxamide] and `CN(C)C1CCN(c2ccc3cc(C(=O)Nc4cnn5c(C(F)(F)F)ccnc45)sc3n2)C1` (stereo not drawn) [Compound 60, 6-(3-(dimethylamino)pyrrolidin-1-yl)-N-(7-(trifluoromethyl)pyrazolo[1,5-a]pyrimidin-3-yl)thieno[2,3-b]pyridine-2-carboxamide] fall in the same range of IC50: 1 to 9 µM for the first, 1 to 9 µM for the second.

With `CN(C)C1CCN(c2ccc3cc(C(=O)Nc4ccc5c(c4)n(C)c(=O)n5C)sc3n2)C1` (stereo not drawn) [Compound 58, N-(1,3-dimethyl-2-oxo-2,3-dihydro-1H-benzo[d]imidazol-5-yl)-6-(3-(dimethylamino)pyrrolidin-1-yl)thieno[2,3-b]pyridine-2-carboxamide] the IC50 was 1 to 9 µM.

— patent US20260035387A1 (BIOGEN MA INC., priority 2022, published 2026)
